Patent US6875761B2 (Eisai Co., Ltd., priority 1997, dated 2005)
Counter-ions that a name gives are not always drawn.

Columns and labels:
serotonin 2 receptor = target: T1, serotonin 2 receptor (Rattus norvegicus, UniProt P14842); test: Binding test on [3H] ketanserin, cerebral cortex receptor fraction; design: species or system SD rats; details: 0.3 nM [3H] ketanserin, 37° C. 15 min, read-out: 5HT2
T1 construct: To the receptor fraction of the cerebral cortex were added a test compound and 0.3 nM of [^3H] ketanserin; from tissue; host or cells: rat cerebral cortex membrane fraction
T1 sequence (P14842 whole entry): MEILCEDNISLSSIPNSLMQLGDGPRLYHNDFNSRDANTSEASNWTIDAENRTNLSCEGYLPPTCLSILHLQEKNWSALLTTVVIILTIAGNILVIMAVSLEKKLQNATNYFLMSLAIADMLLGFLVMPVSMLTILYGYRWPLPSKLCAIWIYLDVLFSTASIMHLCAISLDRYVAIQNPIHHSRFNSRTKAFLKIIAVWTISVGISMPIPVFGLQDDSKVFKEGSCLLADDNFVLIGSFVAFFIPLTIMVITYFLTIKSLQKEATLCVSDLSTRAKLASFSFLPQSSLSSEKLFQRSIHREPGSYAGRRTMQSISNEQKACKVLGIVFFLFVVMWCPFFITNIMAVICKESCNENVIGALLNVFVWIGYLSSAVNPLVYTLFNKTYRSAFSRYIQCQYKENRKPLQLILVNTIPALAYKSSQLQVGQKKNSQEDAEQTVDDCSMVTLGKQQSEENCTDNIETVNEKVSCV

serotonin 1A receptor = target: T2, serotonin 1A receptor (Rattus norvegicus, UniProt P19327); test: Binding test on [3H] 8-hydroxy-dipropylaminotetralin, hippocampus receptor fraction; design: species or system SD rats; details: rat hippocampus receptor fraction, 0.5 nM [3H] 8-OH-DPAT, room temperature 30 min; read-out: 5HT1
T2 construct: To the receptor fraction of the hippocampus were added a test compound and 0.5 nM of [^3H]; 8-hydroxy-dipropylaminotetralin; from tissue; host or cells: rat hippocampus membrane fraction
T2 sequence (P19327 1-422): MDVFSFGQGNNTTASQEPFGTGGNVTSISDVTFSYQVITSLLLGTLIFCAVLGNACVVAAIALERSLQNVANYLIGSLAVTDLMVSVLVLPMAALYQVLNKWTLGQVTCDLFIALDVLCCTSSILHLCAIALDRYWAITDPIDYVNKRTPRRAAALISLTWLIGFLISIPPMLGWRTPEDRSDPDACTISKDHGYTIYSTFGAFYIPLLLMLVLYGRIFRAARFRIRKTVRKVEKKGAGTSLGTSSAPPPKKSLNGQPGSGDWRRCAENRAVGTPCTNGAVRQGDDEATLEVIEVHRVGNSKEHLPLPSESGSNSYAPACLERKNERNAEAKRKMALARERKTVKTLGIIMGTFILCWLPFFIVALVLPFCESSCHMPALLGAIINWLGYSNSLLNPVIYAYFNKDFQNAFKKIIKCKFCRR

Row | SMILES | Ki (serotonin 2 receptor) [nM] | Ki (serotonin 1A receptor) [nM]
1 | CCN1CCN(c2nc(-c3ccc([C@@H]4C[C@H](O)CCO4)cc3)cc3ccccc23)CC1 (relative stereo) [Example 401, 1-(4-Ethylpiperazin-1-yl)-3-[4-(cis-4-Hydroxytetrahydropyran-2-yl)Phenyl]Isoquinoline Dihydrochloride] | 3.4 | 31.3
2 | CCN1CCN(c2nc(-c3ccc([C@@H]4C[C@@H](O)CCO4)cc3)cc3ccccc23)CC1 (relative stereo) [Example 402, 1-(4-Ethylpiperazin-1-yl)-3-[4-(trans-4-Hydroxytetrahydropyran-2-yl)Phenyl]Isoquinoline Dihydrochloride] | 2.1 | 23.7
3 | CCN1CCN(c2nc(-c3ccc([C@@H]4C[C@H](O)CCO4)cc3)cc3ccsc23)CC1 (relative stereo) [Example 454, 7-(4-Ethylpiperazin-1-yl)-5-[4-(cis-4-hydroxytetrahydropyran-2-yl)phenyl]thieno[2,3-c]pyridine dihydrochloride] | 26.5 | 67.4
4 | CCN1CCN(c2nc(-c3ccc([C@@H]4C[C@@H](O)CCO4)cc3)cc3ccsc23)CC1 (relative stereo) [Example 455, 7-(4-ethylpiperazin-1-yl)-5-[4-(trans-4-hydroxytetrahydropyran-2-yl)phenyl]thieno[2,3-c]pyridine dihydrochloride] | 40 | 50.3
5 | CCN1CCN(c2nc(C=C(COC)c3ccccc3)cc3ccccc23)CC1 (stereo in doubt) [Example 208, 3-[(E)-2-Methoxymethyl-2-Phenylethenyl]-1-(4-Ethylpiperazin-1-Yl)Isoquinoline Oxalate] | 7.62 | 91.6
6 | CCN1CCN(c2nc(-c3ccc(OCC(C)O)cc3)cc3cccnc23)CC1 (stereo in doubt) [Example 246, 8-(1-ethylpiperazin-4-yl)-6-{4-[(S)-2-hydroxypropoxy}phenyl]-1,7-naphthyridine Dihydrochloride] | 13.9 | 87
7 | CCN1CCN(c2nc(-c3ccc(OCC(C)O)cc3)cc3ccoc23)CC1 (stereo in doubt) [Example 304, 7-(1-ethylpiperazin-4-yl)-5-[4-[(S)-2-hydroxypropoxy]phenyl)furo[2,3-c]pyridine dihydrochloride] | 19.4 | 15.4
8 | CCN1CCN(c2nc(-c3ccc(O[C@H](C)CO)cc3)cc3sccc23)CC1 (stereo in doubt) [Example 463, 4-(4-ethylpiperazin-1-yl)-6-[4-(2-hydroxy-1-methylethoxy)phenyl]thieno[3,2-c]pyridine dihydrochloride] | 20.9 | 6.98
9 | CCN1CCN(c2nc(-c3ccnc(OCc4ccccc4)c3)cc3ccccc23)CC1 [406 2-Benzyloxy, 1-(4-ethylpiperazin-1-yl)-3-(2-benzyloxypyridin-4-yl)isoquinoline] | 88.1 | 46
10 | CCN1CCN(c2nc(-c3ccnc(Cl)c3)cc3ccccc23)CC1 [406 2-chloro, 1-(4-ethylpiperazin-1-yl)-3-(2-chloropyridin-4-yl)isoquinoline] | 11.1 | 12.2
11 | CN(C)CCC=C1c2ccccc2C=Cc2ccccc21 [Cyclobenzaprine, cyclobenzaprine hydrochloride, reference compound] | 29 | 25
12 | CN1CCN(c2nc(-c3ccc(OCCO)cc3)cc3ccccc23)CC1 [Example 3, 1-(1-methylpiperazin-4-yl)-3-[4-(2-hydroxyethoxy)phenyl]isoquinoline] | 3.8 | 65
13 | CCN1CCN(c2nc(-c3ccc(C(F)(F)F)cc3)cc3ccccc23)CC1 [Example 4, 1-(4-ethylpiperazin-1-yl)-3-(4-trifluoromethylphenyl)isoquinoline Dihydrochloride] | 74.9 | 71
14 | CCC(F)c1ccc(-c2cc3ccccc3c(N3CCN(CC)CC3)n2)cc1 (stereo not drawn) [Example 5, 1-(4-ethylpiperazin-1-yl)-3-[4-(1-fluoropropyl)phenyl]isoquinoline Hydrochloride] | 2.2 | 21
15 | CCN1CCN(c2nc(-c3cccc(OC)c3)cc3ccccc23)CC1 [Example 9, 1-(4-ethylpiperazin-1-yl)-3-(3-methoxyphenyl)isoquinone Dihydrochloride] | 24.5 | 57
16 | CCN1CCN(c2nc(-c3ccc(OC)cc3)cc3ccccc23)CC1 [Example 10, 1-(4-Ethylpiperazin-1-yl)-3-(4-methoxyphenyl)isoquinoline] | 11 | 60
17 | CCN1CCN(c2nc(-c3ccc(OC)c(OC)c3)cc3ccccc23)CC1 [Example 14, 3-(3,4-dimethoxyphenyl)-1-(4-ethylpiperazin-1-yl)isoquinoline Dihydrochloride] | 35 | 23
18 | CCN1CCN(c2nc(-c3cc(OC)cc(OC)c3)cc3ccccc23)CC1 [Example 15, 3-(3,5-dimethoxyphenyl)-1-(4-ethylpiperazin-1-yl)isoquinoline Dihydrochloride] | 19.5 | 55.5
19 | CCN1CCN(c2nc(-c3ccc(CO)cc3)cc3ccccc23)CC1 [Example 17, 1-(4-ethylpiperazin-1-yl)-3-(4-hydroxymethylphenyl)isoquinoline hydrochloride] | 26.8 | 11.1
20 | CCN1CCN(c2nc(-c3ccc(C(O)CCO)cc3)cc3ccccc23)CC1 (stereo not drawn) [Example 24, 3-[4-(1,3-dihydroxypropyl)phenyl]-1-(4-ethylpiperazin-1-yl)isoquinoline hydrochloride] | 7.4 | 11.7
21 | CCN1CCN(c2nc(-c3ccc(C(O)CC(C)(C)O)cc3)cc3ccccc23)CC1 (stereo not drawn) [Example 25, 3-[4-(1,3-dihydroxy-3-methylbutyl)phenyl]-1-(4-ethylpiperazin-1-yl)isoquinoline] | 3.4 | 21.5
22 | CCN1CCN(c2nc(-c3ccc(C(CC(C)O)OC)cc3)cc3ccccc23)CC1 (stereo not drawn) [Example 26, 3-[4-(3-hydroxy-1-methoxybutyl)phenyl]-1-(4-ethylpiperazin-1-yl)isoquinoline] | 55 | 8.5
23 | CCN1CCN(c2nc(-c3ccc(C(F)CCO)cc3)cc3ccccc23)CC1 (stereo not drawn) [Example 27, 1-(1-Ethylpiperazin-4-yl)-3-[4-(3-hydroxy-1-fluoropropyl)phenyl]isoquinoline] | 2.47 | 29.4
24 | CCN1CCN(c2nc(-c3ccc(CO)c(F)c3)cc3ccccc23)CC1 [Example 28, 1-(4-ethylpiperazin-1-yl)-3-[4-(4-hydroxymethyl-3-fluoro)phenyl]isoquinoline hydrochloride] | 9.1 | 24.4
25 | CCN1CCN(c2nc(-c3ccc(CCCO)c(Cl)c3)cc3ccccc23)CC1 [Example 30, 3-[3-chloro-4-(3-hydroxypropyl)phenyl]-1-(4-ethylpiperazin-1-yl)isoquinoline hydrochloride] | 6.3 | 10.7
26 | CCN1CCN(c2nc(-c3ccc(OC)c(CCCO)c3)cc3ccccc23)CC1 [Example 34, 3-[3-(3-hydroxypropyl)-4-methoxyphenyl]-1-(4-ethylpiperazin-1-yl)isoquinoline hydrochloride] | 17.3 | 23.5
27 | CCN1CCN(c2nc(-c3ccc(OC)c(CCCCO)c3)cc3ccccc23)CC1 [Example 35, 3-[3-(4-hydroxybutyl)-4-methoxyphenyl]-1-(4-ethylpiperazin-1-yl)isoquinoline hydrochloride] | 5.7 | 35.3
